Test results published in patent US20250177366A1, “COMPOSITIONS AND METHODS FOR ALLEVIATING PAIN AND REDUCING ADVERSIVENESS OF STIMULI” (UNIVERSITY OF WASHINGTON, priority 2021, published 2025).

What was measured:
Format in all cases: in vivo, Zebrafish (Danio rerio)
[1] = tested on: larval zebrafish; assay: AITC aversion assay (chemical attraction/aversion, AITC-infused agarose); details: for effect of co-applied drug on AS1-induced attraction to AITC / AITC aversion, drug alone: AITC 100 mM in agarose; for effect of co-applied drug on AS1-induced attraction to AITC: drug + AS1 (5 μM; 2.5 μM with SKF and sumanirole); for AITC aversion, drug alone: without AS1
Text: Whether the effects of AS1 extended beyond noxious temperature sensation or could also impact other somatosensory modalities was next explored. To accomplish this, a chemical attraction/aversion assay where a thin layer of agarose was deposited along the edges of a square arena (Jordi et al., Sci. Adv. 2018; 4:1-15) were adapted. Along one wall, the agarose contained the chemical to be tested, while the other three walls were lined with control agarose. It was anticipated that a chemical gradient would be established as chemical diffused from the agarose into the surrounding water. Larvae were pre-incubated in either vehicle or AS1 and then added to the arena and the distance of each larva from the chemical-infused agarose was measured. In control experiments where all four walls of the arena were lined with agarose only, AS1 and vehicle-treated larvae were dispersed evenly throughout the arena (FIG. 3). […] When the nociceptive chemical AITC (100 mM, 10,000× maximal effective dose) was tested, vehicle-treated larvae swam away from the AITC source.
(§1) Chemical attraction/aversion assays. The agarose attraction/aversion assay was adapted from previously described experiments (Jordi et al., Sci. Adv. 2018; 4:1-15). For the AITC aversion assay, AITC and DMSO were added to molten 0.8% agarose to achieve a final concentration of 100 mM AITC and 2% DMSO. For the AS1 attraction/aversion assay, AS1 and DMSO were added to 0.8% molten agar to achieve final concentrations of 50 mM and 2%, respectively. To construct the test chambers, the lids of 10×10 cm square petri dishes (insert cat #and company) were lined on four sides with either the test (chemical-containing) or plain agarose (300 μL per side) and allowed to solidify. For all experiments, 30-40 randomly selected 6 dpf zebrafish were caught with a 10 mL pipette pump (Bel-Air Products, cat #: 13683C) equipped with a glass wide-bored Pasteur pipet (Fisher Scientific, cat #: 22-037-540) and deposited into a standard 10 cm diameter petri dish (Fisher Scientific, cat #: 07-202-031). As much E2 media as possible was carefully removed using the same pipette. For single incubation experiments, 30 mL of 1× solutions of the control or test chemical was added to each petri dish, and fish were incubated for 10 minutes at 28.5° C. For double incubation experiments, 15 mL of 1× solutions containing control (DMSO) or test chemicals was added to the larvae-containing petri dish. Following a ten minute incubation, 15 mL of the second incubation solution (1× control or test chemical +/−2× AS1) was added to the petri dish, and the fish were incubated for a second ten minute block. The final concentration of DMSO in all solutions was 1%. In all double-incubation experiments, the final concentration of AS1 was 5 μM unless otherwise noted. After completion of the last incubation period, the contents of each petri dish were poured into separate agarose-lined square dishes. Swimming behavior was immediately recorded for 20 minutes using the same high-definition camcorder in the thermal preference assays.

[2] = tested on: larval zebrafish; assay: Light/dark preference (phototaxis) assay; details: for effect of co-applied drug on AS1-induced preference for the dark: drug + 2.5 μM AS1; for light/dark preference, drug alone: without AS1
Method: Following this, whether the effects of AS1 were restricted to somatosensation or were generalizable to other aversive stimuli were tested. Thus, the effects of AS1 on light/dark preference were tested. Zebrafish larvae prefer white light environments to dark environments and this preference is inhibited by anxiolytics, analagous to studies in rodents (Lau et al., Proc. Natl. Acad. Sci. U.S.A 2011; 108:2581-2586; Burgess et al., Curr. Biol. 2010; 20:381-386). To measure light/dark preference, larval zebrafish were placed in a square arena and given the choice between a bright white light and total darkness, and the number of larvae on each side was quantified at 30 second intervals. Five 4-minute trials were performed, where the light and dark sides of the arena were reversed between trials. […] Given the precise control over stimulus luminosity in this assay, the effects of altering the intensity of the dark stimulus were explored next. In this gradient version of the phototaxis assay, larval zebrafish were given the choice between a bright white environment and one of six potential shades of darkness, ranging from light gray to solid black. […] This implies that the valence of non-painful noxious stimuli is precisely encoded in an intensity-dependent manner, and that AS1 exerts its effects in proportion to the intensity of the stimulus.
Light/dark preference (phototaxis) assay. In the light/dark preference assay, randomly-selected 6 dpf larval zebrafish (N of 30 to 40) were carefully pipetted onto a 10 cm square petri dish using a 10 mL pipette pump equipped with a glass wide-bored Pasteur pipet. As much E2 media as possible was carefully removed using the same pipet. For single incubation experiments, 30 mL of 1× solutions of the control or test chemical was added to each petri dish, and fish were incubated for 10 minutes at 28.5° C. For double incubation experiments, 15 mL of 1× solutions containing control (DMSO) or test chemicals was added to the larvae-containing petri dish. Following a ten-minute incubation period, 15 mL of the second incubation solution (1× control or test chemical +/−2× AS1) was added to the petri dish, and the fish were incubated for a second ten minute block. The final concentration of DMSO in all solutions was 1%. In all double-incubation experiments, the final concentration of AS1 was 2.5 μM. These petri dishes were then positioned over a horizontally-oriented computer monitor displaying a PowerPoint presentation. For standard light/dark preference assays, a blank white slide was initially presented for one minute, after which the presentation would automatically advance to a slide in which half of the display was black. The petri dish with larvae was positioned such that exactly half was directly over the dark side, and the other half was directly over the light side. After four minutes, the presentation automatically advanced to a slide in which the black and white halves switched places. A total of five four-minute trials, with the dark/light halves automatically switching position between trials, were recorded. For the gradient phototaxis assay, experiments were performed identically, except that the “dark” half of the powerpoint presentation was one of six shades of gray.
In all experiments, an initial still frame of video was taken during the minute where the blank slide was presented in order to quantify the total number of fish in the experiment. Following this, still frames were taken at 30 second intervals for each trial ([…]), and the number of fish present in the light half of the arena were counted. To generate the graphs that looked at swimming patterns over time in a trial (e.g., FIG. 3D), the average percentage of fish in the light at each time point (T=0, T=30, etc.) was calculated across all five trials. […]

[3] = tested on: larval zebrafish; assay: Thermal preference assay (28.5° C. vs 37.5° C.), non-sensitized; details: for effect of co-applied drug on AS1-induced attraction to noxious heat / temperature choice, drug alone: 28.5° C. vs 37.5° C.; for effect of co-applied drug on AS1-induced attraction to noxious heat / effect of co-applied drug on swimming velocity of AS1-treated fish: drug + 5 μM AS1; for temperature choice, drug alone: without AS1; for effect of co-applied drug on swimming velocity of AS1-treated fish: 28.5 and 37.5° C. zones
Method: Thermal preference assay. […] Once an entire plate was loaded with fish, the appropriate incubation solution was added. […] Following incubation in all experiments, the choice testing plate was transported to a dual solid-state heat/cool plate (AHP-1200° C. P; Teca) and centered such that half of each arena was positioned over each side of the heat/cool plate. […] Locomotor behavior was recorded using a Canon high-definition video camcorder suspended at a fixed position above the choice testing plate. Each trial was four minutes in duration.
For single-incubation assays (e.g. testing single chemicals), larval zebrafish were caught in 100 μL E2 media and 100 μL of the control (2% DMSO) or test chemical at 2× concentration was added to each well to achieve the final desired concentration. […] The final DMSO concentration in all solutions was 1%.

[4] = tested on: larval zebrafish; assay: Chemical attraction/aversion assay with the test chemical itself as source (inherent attractiveness); details: 2 mL in trough of 3D-printed arena; SKF 25 μM; AS1 10 μM-1 mM
Text: To confirm that AS1 itself was not attractive, the chemical attraction/aversion assay was used. […] Since the assay was modified to accommodate the inability to dissolve SKF into agarose at high concentrations (see Materials and Methods), the inherent attractiveness of AS1 was re-tested using this new format.
as §1, with “Following a ten minute incubation, 15 mL of the second incubation solution (1× control or test chemical +/−2× AS1) was added to the petri dish, and the fish were incubated for a second ten minute block. The final concentration of DMSO in all solutions was 1%. In all double-incubation experiments, the final concentration of AS1 was 5 μM unless otherwise noted. After completion of the last incubation period, the contents of each petri dish were poured into separate agarose-lined square dishes.” left out
For the SKF attraction/aversion assay, custom 10 cm×10 cm plates using clear resin (Formlabs, cat #: RS-F2-GPCL-04) and a Form 3+3D printer (Formlabs, cat #: PKG-F3-WSVC-BASIC) were designed. […] Swimming behavior was then recorded for 20 minutes. […]

Row | Compound | effect of co-applied drug on AS1-induced attraction to AITC [1] | AITC aversion, drug alone [1] | effect of co-applied drug on AS1-induced preference for the dark [2] | light/dark preference, drug alone [2] | effect of co-applied drug on AS1-induced attraction to noxious heat [3] | temperature choice, drug alone [3] | concentrations that partially attenuate AS1-induced attraction to AITC ([1]; SCH 1-20 μM + 5 μM AS1) [µM] | concentration abolishing AS1-induced preference for the dark entirely ([2]; SCH 10-20 μM + 2.5 μM AS1) [µM] | inherent attractiveness of chemical deposited into trough [4] | effect of co-applied drug on swimming velocity of AS1-treated fish [3]
1 | C=CCN1CC[C@]23c4c5ccc(O)c4O[C@H]2C(=O)CC[C@@]3(O)[C@H]1C5 [Naloxone, naloxone] | did not reverse AS1-induced attraction towards AITC | did not affect AITC avoidance | significantly preferred the dark, regardless of whether 1 μM naloxone was applied | significantly chose the light side of the arena | significantly chose the 37.5 °C side | significantly chose the 28.5 °C side of the arena |  |  |  | 
2 | CN1CCc2cc(Cl)c(O)cc2[C@@H](c2ccccc2)C1 [SCH23390] |  |  |  |  |  |  | ≥ 5 | 15 |  | 
3 | C=CCN1CCc2c(cc(O)c(O)c2Cl)C(c2ccccc2)C1 (centres unmarked) [SKF82958] | did block AS1-induced preference to this chemical irritant | had little effect upon aversion to AITC | reversed dark preference in fish that were treated with AS1 | slight decrease in the proportion of fish found in the light by itself | significantly attenuated the amount of time AS1-treated fish spent at 37.5 °C | slight potentiation of preference for the 28.5 °C side |  |  | mildly attractive | reduced the swimming velocity of AS1-treated zebrafish in the 28.5 °C zone
4 | CCN1CCCC1CNC(=O)c1cc(S(N)(=O)=O)ccc1OC (centres unmarked) [sulpiride] | had no effect | had no effect | had no effect | had no effect | had no effect | had no effect |  |  |  | had no effect
5 | sumanirole maleate | did seem to attenuate AS1-mediated attraction to AITC, but only at higher concentrations | had little effect alone in the chemical aversion assay | had no effect | had no effect | had no effect | had no effect |  |  |  | 
